Measurements reported in patent publication US6737383B1, “Herbicidal oxadiazolidines” (priority 1999, dated 2004).

Experiments:
bedstraw = test: Test B pre/postemergence bedstraw; format: in vivo, Galium aparine
Outline: (§1)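 Herbicidal effect was estimated by eye on a ten-point control scale after plants spent twelve to sixteen days in a greenhouse following soil or foliar treatment. Foliar sprays targeted plants at one to four leaves; all doses were formulated in a non-phytotoxic solvent with surfactant.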

blackgrass = test: Test B pre/postemergence blackgrass; format: in vivo, Alopecurus myosuroides
Outline: as §1

surinam grass = test: Test B pre/postemergence surinam grass; format: in vivo, Brachiaria decumbens
Outline: as §1

cocklebur = test: Test B pre/postemergence cocklebur; format: in vivo, Xanthium strumarium
Outline: as §1

corn = test: Test B pre/postemergence corn; format: in vivo, Zea mays
Outline: as §1

crabgrass = test: Test B pre/postemergence crabgrass; format: in vivo, Digitaria sanguinalis
Outline: as §1

giant foxtail = test: Test B pre/postemergence giant foxtail; format: in vivo, Setaria faberii
Outline: as §1

pigweed = test: Test B pre/postemergence pigweed; format: in vivo, Amaranthus retroflexus
Outline: as §1

[1] = Postemergence, Rate 125 g/ha, scale of 0 to 10 where 0 is no effect and 10 is complete control
[2] = Preemergence, Rate 62 g/ha, scale of 0 to 10 where 0 is no effect and 10 is complete control
[3] = Preemergence, Rate 125 g/ha, 0 is no effect, 10 is complete control
[4] = Preemergence, Rate 250 g/ha, scale 0 to 10, 0 is no effect, 10 is complete control
[5] = Preemergence, Rate 500 g/ha, scale 0 to 10 (0 no effect, 10 complete control)
[6] = Rate 62 g/ha, Postemergence, scale of 0 to 10 where 0 is no effect and 10 is complete control
[7] = Rate 250 g/ha, Postemergence, scale 0 to 10, 0 is no effect, 10 is complete control
[8] = Rate 500 g/ha, Postemergence, scale 0 to 10
[9] = Rate 1000 g/ha, Preemergence, scale 0 to 10 (0 no effect, 10 complete control)
[10] = Rate 2000 g/ha, Preemergence, scale 0 to 10
[11] = Postemergence, Rate 1000 g/ha, scale 0 to 10 (0 no effect, 10 complete control)
[12] = Rate 2000 g/ha, Postemergence, scale 0 to 10

CC(C)N(C(=O)n1oc(=O)n(N(C)c2ccccc2)c1=O)c1ccc(F)cc1 [Compound 177]
Bedstraw plant response rating (bedstraw; [1]): 0 | Bedstraw plant response rating (bedstraw; [2]): 0 | Bedstraw plant response rating (0 to 10 scale) (bedstraw; [3]): 0 | Bedstraw plant response rating (bedstraw; [4]): 9 | Bedstraw plant response rating (bedstraw; [5]): 10 | Bedstraw plant response rating (bedstraw; [6]): 0 | Plant response rating, Bedstraw (bedstraw; [7]): 5 | Bedstraw plant response rating (bedstraw; [8]): 6 | Plant response rating, Bedstraw (bedstraw; [9]): 10 | Bedstraw plant response rating (bedstraw; [10]): 10 | Blackgrass plant response rating (blackgrass; [1]): 0 | Blackgrass plant response rating (blackgrass; [11]): 3 | Blackgrass plant response rating (blackgrass; [2]): 0 | Blackgrass plant response rating (0 to 10 scale) (blackgrass; [3]): 0 | Blackgrass plant response rating (blackgrass; [4]): 6 | Blackgrass plant response rating (blackgrass; [5]): 6 | Blackgrass plant response rating (blackgrass; [6]): 0 | Plant response rating, Blackgrass (blackgrass; [7]): 0 | Blackgrass plant response rating (blackgrass; [8]): 2 | Plant response rating, Blackgrass (blackgrass; [9]): 7 | Blackgrass plant response rating (blackgrass; [12]): 6 | Blackgrass plant response rating (blackgrass; [10]): 9 | B. signalgrass plant response rating (surinam grass; [1]): 0 | B. signalgrass plant response rating (surinam grass; [11]): 0 | B. signalgrass plant response rating (surinam grass; [2]): 0 | B. signalgrass plant response rating (0 to 10 scale) (surinam grass; [3]): 0 | B. signalgrass plant response rating (surinam grass; [4]): 0 | B. signalgrass plant response rating (surinam grass; [5]): 0 | B. signalgrass plant response rating (surinam grass; [6]): 0 | Plant response rating, B. signalgrass (surinam grass; [7]): 0 | B. signalgrass plant response rating (surinam grass; Rate 500 g/ha, Postemergence, scale 0 to 10, 0 no effect, 10 complete control): 0 | Plant response rating, B. signalgrass (surinam grass; [9]): 5 | B. signalgrass plant response rating (surinam grass; [12]): 0 | B. signalgrass plant response rating (surinam grass; [10]): 9 | Cocklebur plant response rating (cocklebur; [1]): 0 | Cocklebur plant response rating (cocklebur; [11]): 0 | Cocklebur plant response rating (cocklebur; [2]): 0 | Cocklebur plant response rating (0 to 10 scale) (cocklebur; [3]): 0 | Cocklebur plant response rating (cocklebur; [4]): 0 | Cocklebur plant response rating (cocklebur; [5]): 0 | Cocklebur plant response rating (cocklebur; [6]): 0 | Plant response rating, Cocklebur (cocklebur; [7]): 0 | Cocklebur plant response rating (cocklebur; [8]): 3 | Cocklebur plant response rating (cocklebur; [12]): 0 | Cocklebur plant response rating (cocklebur; [10]): 2 | Corn plant response rating (corn; [1]): 0 | Corn plant response rating (corn; [11]): 0 | Corn plant response rating (corn; [2]): 0 | Corn plant response rating (0 to 10 scale) (corn; [3]): 0 | Corn plant response rating (corn; [4]): 0 | Corn plant response rating (corn; [5]): 0 | Corn plant response rating (corn; [6]): 0 | Plant response rating, Corn (corn; [7]): 0 | Corn plant response rating (corn; [8]): 0 | Plant response rating, Corn (corn; [9]): 0 | Corn plant response rating (corn; [12]): 0 | Corn plant response rating (corn; [10]): 0 | Crabgrass plant response rating (crabgrass; [1]): 0 | Crabgrass plant response rating (crabgrass; [11]): 0 | Crabgrass plant response rating (crabgrass; [2]): 1 | Crabgrass plant response rating (0 to 10 scale) (crabgrass; [3]): 6 | Crabgrass plant response rating (crabgrass; [4]): 9 | Crabgrass plant response rating (crabgrass; [5]): 9 | Crabgrass plant response rating (crabgrass; [6]): 0 | Plant response rating, Crabgrass (crabgrass; [7]): 2 | Crabgrass plant response rating (crabgrass; [8]): 3 | Plant response rating, Crabgrass (crabgrass; [9]): 8 | Crabgrass plant response rating (crabgrass; [12]): 0 | Crabgrass plant response rating (crabgrass; [10]): 9 | Giant foxtail plant response rating (giant foxtail; [1]): 0 | Giant foxtail plant response rating (giant foxtail; [11]): 0 | Giant foxtail plant response rating (giant foxtail; [2]): 3 | Giant foxtail plant response rating (0 to 10 scale) (giant foxtail; [3]): 3 | Giant foxtail plant response rating (giant foxtail; [4]): 10 | Giant foxtail plant response rating (giant foxtail; [5]): 10 | Giant foxtail plant response rating (giant foxtail; [6]): 0 | Plant response rating, Giant foxtail (giant foxtail; [7]): 0 | Giant foxtail plant response rating (giant foxtail; [8]): 0 | Plant response rating, Giant foxtail (giant foxtail; [9]): 10 | Giant foxtail plant response rating (giant foxtail; [12]): 2 | Giant foxtail plant response rating (giant foxtail; [10]): 10 | Redroot pigweed plant response rating (pigweed; [1]): 0 | Redroot pigweed plant response rating (pigweed; [11]): 2 | Redroot pigweed plant response rating (pigweed; [2]): 0 | Redroot pigweed plant response rating (0 to 10 scale) (pigweed; [3]): 0 | Redroot pigweed plant response rating (pigweed; [4]): 0 | Redroot pigweed plant response rating (pigweed; [5]): 0
